From patent US11306092B2, “Amino indole compounds useful as TLR inhibitors” (BRISTOL-MYERS SQUIBB COMPANY, priority 2017, dated 2022)
pIC50: −log10 of the molar value.

Experiments:
human TLR9 = biological target: T1, human TLR9 (Homo sapiens, UniProt Q9NR96); experiment: TLR9 inhibition reporter assay (HEK-Blue SEAP reporter); type: cell-based; conditions: HEK-Blue cells overexpressing human TLR9; ODN2006 5 nM; 22 hour incubation
T1 construct: host or cells: HEK-Blue cells
T1 sequence (Q9NR96 26-1032): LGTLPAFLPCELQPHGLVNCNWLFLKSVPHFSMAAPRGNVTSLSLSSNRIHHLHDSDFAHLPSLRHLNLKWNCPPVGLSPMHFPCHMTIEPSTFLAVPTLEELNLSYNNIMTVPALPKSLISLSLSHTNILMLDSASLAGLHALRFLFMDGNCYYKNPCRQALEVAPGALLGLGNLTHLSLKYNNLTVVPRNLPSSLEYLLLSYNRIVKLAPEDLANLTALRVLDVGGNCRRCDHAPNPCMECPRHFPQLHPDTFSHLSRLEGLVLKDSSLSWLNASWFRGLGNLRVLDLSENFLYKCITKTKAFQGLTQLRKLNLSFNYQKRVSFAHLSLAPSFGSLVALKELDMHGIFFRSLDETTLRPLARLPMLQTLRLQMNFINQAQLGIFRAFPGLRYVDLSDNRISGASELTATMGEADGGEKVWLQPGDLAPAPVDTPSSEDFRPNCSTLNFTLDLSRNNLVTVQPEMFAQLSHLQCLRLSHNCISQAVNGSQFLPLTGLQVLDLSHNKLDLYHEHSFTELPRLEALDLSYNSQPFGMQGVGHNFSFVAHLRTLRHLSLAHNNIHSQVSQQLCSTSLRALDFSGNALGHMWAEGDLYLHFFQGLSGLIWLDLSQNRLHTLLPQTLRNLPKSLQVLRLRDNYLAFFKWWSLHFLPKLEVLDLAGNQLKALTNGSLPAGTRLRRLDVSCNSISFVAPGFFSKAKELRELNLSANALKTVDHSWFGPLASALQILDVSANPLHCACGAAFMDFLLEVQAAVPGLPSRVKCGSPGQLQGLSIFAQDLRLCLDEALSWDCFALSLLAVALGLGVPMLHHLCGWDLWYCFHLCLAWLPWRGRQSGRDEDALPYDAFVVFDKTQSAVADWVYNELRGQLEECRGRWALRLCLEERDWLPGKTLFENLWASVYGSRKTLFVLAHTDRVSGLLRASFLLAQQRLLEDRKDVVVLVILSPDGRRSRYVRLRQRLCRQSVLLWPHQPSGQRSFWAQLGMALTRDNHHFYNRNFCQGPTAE
Description: (§1) TLR7/8/9 Inhibition Reporter Assays
(§2) HEK-Blue™-cells (Invivogen) overexpressing human TLR7, TLR8 or TLR9 receptors were used for screening inhibitors of these receptors using an inducible SEAP (secreted embryonic alkaline phosphatase) reporter gene under the control of the IFN-β minimal promoter fused to five NF-κB and AP-1-binding sites. Briefly, cells are seeded into Greiner 384 well plates (15000 cells per well for TLR7, 20,000 for TLR8 and 25,000 for TLR9) and then treated with test compounds in DMSO to yield a final dose response concentration range of 0.05 nM-50 μM. After a 30 minute compound pre-treatment at room temperature, the cells are then stimulated with a TLR7 ligand (gardiquimod at a final concentration of 7.5 μM), TLR8 ligand (R848 at a final concentration of 15.9 μM) or TLR9 ligand (ODN2006 at a final concentration of 5 nM) to activate NF-κB and AP-1 which induce the production of SEAP. After a 22 hour incubation at 37° C., 5% CO2, SEAP levels are determined with the addition of HEK-Blue™ Detection reagent (Invivogen), a cell culture medium that allows for detection of SEAP, according to manufacturer's specifications. The percent inhibition is determined as the % reduction in the HEK-Blue signal present in wells treated with agonist plus DMSO alone compared to wells treated with a known inhibitor.

human TLR7 = biological target: T2, human TLR7 (Homo sapiens, UniProt Q9NYK1); experiment: TLR7 inhibition reporter assay (HEK-Blue SEAP reporter); type: cell-based; conditions: HEK-Blue cells overexpressing human TLR7; gardiquimod 7.5 μM; 22 hour incubation
T2 construct: host or cells: HEK-Blue cells
T2 sequence (Q9NYK1 27-1049): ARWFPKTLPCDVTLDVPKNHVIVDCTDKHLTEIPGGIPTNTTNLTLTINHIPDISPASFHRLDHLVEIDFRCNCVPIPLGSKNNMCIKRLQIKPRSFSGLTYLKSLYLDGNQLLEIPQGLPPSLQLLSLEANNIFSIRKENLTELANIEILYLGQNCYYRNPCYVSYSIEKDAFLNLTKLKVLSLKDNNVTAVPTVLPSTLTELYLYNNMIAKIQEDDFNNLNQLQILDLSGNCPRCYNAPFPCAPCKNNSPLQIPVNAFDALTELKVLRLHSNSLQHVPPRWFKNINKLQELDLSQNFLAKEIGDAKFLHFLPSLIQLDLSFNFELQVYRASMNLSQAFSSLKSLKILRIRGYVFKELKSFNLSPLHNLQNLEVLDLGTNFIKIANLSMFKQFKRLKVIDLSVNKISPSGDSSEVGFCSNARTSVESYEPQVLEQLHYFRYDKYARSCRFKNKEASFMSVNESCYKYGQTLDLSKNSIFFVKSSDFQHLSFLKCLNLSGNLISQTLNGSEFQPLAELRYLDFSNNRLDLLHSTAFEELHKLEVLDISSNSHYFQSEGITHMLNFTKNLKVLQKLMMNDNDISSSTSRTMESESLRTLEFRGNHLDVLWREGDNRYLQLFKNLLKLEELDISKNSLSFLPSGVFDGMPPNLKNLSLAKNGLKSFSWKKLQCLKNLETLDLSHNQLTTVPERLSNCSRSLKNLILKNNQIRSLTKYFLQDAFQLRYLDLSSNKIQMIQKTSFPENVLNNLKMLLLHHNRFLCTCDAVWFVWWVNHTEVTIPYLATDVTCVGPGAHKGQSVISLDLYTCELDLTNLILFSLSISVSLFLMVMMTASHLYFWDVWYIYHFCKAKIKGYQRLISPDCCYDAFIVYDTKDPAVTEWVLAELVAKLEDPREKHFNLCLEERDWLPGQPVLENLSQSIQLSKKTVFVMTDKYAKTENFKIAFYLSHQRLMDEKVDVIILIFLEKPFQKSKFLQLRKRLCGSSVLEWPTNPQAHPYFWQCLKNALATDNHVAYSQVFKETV
Description: as §1, §2

Row | Compound | pIC50 (human TLR9) | pIC50 (human TLR7)
1 | CNCCNC1CCC(Nc2ccc3[nH]c(-c4ccc(OC)c(OC)c4)c(C(C)C)c3c2)CC1 (single isomer, unassigned) [Example 31, N1-(2-(3,4-dimethoxyphenyl)-3-isopropyl-1H-indol-5-yl)-N4-(2-(methylamino)ethyl)cyclohexane-1,4-diamine] | 5.84 | 5.95
2 | COc1ccc(-c2[nH]c3ccc(NC4CCC(NC5CCN(C)CC5)CC4)cc3c2C(C)C)cc1OC (single isomer, unassigned) [Example 41, N1-(2-(3,4-dimethoxyphenyl)-3-isopropyl-1H-indol-5-yl)-N4-(1-methylpiperidin-4-yl)cyclohexane-1,4-diamine] | 6.00 | 6.66
3 | COc1ccc(-c2[nH]c3ccc(NC4CCC(N5CCN(C(C)=O)CC5)CC4)cc3c2C(C)C)cc1OC (single isomer, unassigned) [Example 44, 1-(4-(4-((2-(3,4-dimethoxyphenyl)-3-isopropyl-1H-indol-5-yl)amino)cyclohexyl)piperazin-1-yl)ethan-1-one] | 5.39 | 6.43
4 | COc1ccc(-c2[nH]c3ccc(NC4CCC(N5CCN(C(C)=O)CC5)CC4)cc3c2C(C)C)cc1OC (single isomer, unassigned) [Example 45, 1-(4-(4-((2-(3,4-dimethoxyphenyl)-3-isopropyl-1H-indol-5-yl)amino)cyclohexyl)piperazin-1-yl)ethan-1-one] | 5.90 | 6.46
5 | CCc1c(-c2ccc(OC)c(OC)c2)[nH]c2ccc(N(CC)C3CCN(C4CCN(C)CC4)CC3)cc12 [Example 28, 2-(3,4-dimethoxyphenyl)-N,3-diethyl-N-(1′-methyl-1,4′-bipiperidin-4-yl)-1H-indol-5-amine] | 6.20 | 5.65
6 | COc1ccc(-c2[nH]c3ccc(NC4CCC(NCCN(C)C)CC4)cc3c2C(C)C)cc1OC (stereo not drawn) [Example 32, N1-(2-(3,4-dimethoxyphenyl)-3-isopropyl-1H-indol-5-yl)-N4-(2-(dimethylamino)ethyl)cyclohexane-1,4-diamine] | 6.21 | 6.72
7 | COc1ccc(-c2[nH]c3ccc(NC4CCC(NCCN(C)C)CC4)cc3c2C(C)C)cc1OC (stereo not drawn) [Example 33, N1-(2-(3,4-dimethoxyphenyl)-3-isopropyl-1H-indol-5-yl)-N4-(2-(dimethylamino)ethyl)cyclohexane-1,4-diamine] | 6.19 | 6.87
8 | COc1ccc(-c2[nH]c3ccc(NC4CCC(N5CCN(C)CC5)CC4)cc3c2C(C)C)cc1OC (stereo not drawn) [Example 34, 2-(3,4-dimethoxyphenyl)-3-isopropyl-N-(4-(4-methylpiperazin-1-yl)cyclohexyl)-1H-indol-5-amine] | 6.11 | 6.55
9 | COc1ccc(-c2[nH]c3ccc(NC4CCC(NCCCN(C)C)CC4)cc3c2C(C)C)cc1OC (stereo not drawn) [Example 36, N1-(2-(3,4-dimethoxyphenyl)-3-isopropyl-1H-indol-5-yl)-N4-(3-(dimethylamino)propyl) cyclohexane-1,4-diamine] | 6.23 | 6.65
10 | COc1ccc(-c2[nH]c3ccc(NC4CCC(NCCCN(C)C)CC4)cc3c2C(C)C)cc1OC (stereo not drawn) [Example 37, N1-(2-(3,4-dimethoxyphenyl)-3-isopropyl-1H-indol-5-yl)-N4-(3-(dimethylamino)propyl) cyclohexane-1,4-diamine] | 5.85 | 6.77
11 | CCN1CCN(C2CCC(Nc3ccc4[nH]c(-c5ccc(OC)c(OC)c5)c(C(C)C)c4c3)CC2)CC1 (stereo not drawn) [Example 38, 2-(3,4-dimethoxyphenyl)-N-(4-(4-ethylpiperazin-1-yl)cyclohexyl)-3-isopropyl-1H-indol-5-amine] | 6.15 | 6.35
12 | CCN1CCN(C2CCC(Nc3ccc4[nH]c(-c5ccc(OC)c(OC)c5)c(C(C)C)c4c3)CC2)CC1 (stereo not drawn) [Example 39, 2-(3,4-dimethoxyphenyl)-N-(4-(4-ethylpiperazin-1-yl)cyclohexyl)-3-isopropyl-1H-indol-5-amine] | 5.91 | 6.62
13 | COc1ccc(-c2[nH]c3ccc(NC4CCC(N(C)CCCN(C)C)CC4)cc3c2C(C)C)cc1OC (stereo not drawn) [Example 42, N1-(2-(3,4-dimethoxyphenyl)-3-isopropyl-1H-indol-5-yl)-N4-(3-(dimethylamino)propyl)-N4-methylcyclohexane-1,4-diamine] | 6.00 | 6.97
14 | COc1ccc(-c2[nH]c3ccc(NC4CCC(N(C)CCCN(C)C)CC4)cc3c2C(C)C)cc1OC (stereo not drawn) [Example 43, N1-(2-(3,4-dimethoxyphenyl)-3-isopropyl-1H-indol-5-yl)-N4-(3-(dimethylamino)propyl)-N4-methylcyclohexane-1,4-diamine] | 6.32 | 6.60
15 | COc1ccc(-c2[nH]c3ccc(NC4CCC(N5CCC(N(C)C)CC5)CC4)cc3c2C(C)C)cc1OC (stereo not drawn) [Example 46, 2-(3,4-dimethoxyphenyl)-N-(4-(4-(dimethylamino)piperidin-1-yl)cyclohexyl)-3-isopropyl-H-indol-5-amine] | 6.09 | 5.98
16 | COc1ccc(-c2[nH]c3ccc(NC4CCC(NCCN5CCOCC5)CC4)cc3c2C(C)C)cc1OC (stereo not drawn) [Example 48, N1-(2-(3,4-dimethoxyphenyl)-3-isopropyl-1H-indol-5-yl)-N4-(2-morpholinoethyl)cyclohexane-1,4-diamine] | 5.90 | 6.49
17 | COc1ccc(-c2[nH]c3ccc(NC4CCC(N5CCN(C(C)(C)C)CC5)CC4)cc3c2C(C)C)cc1OC (stereo not drawn) [Example 49, N-(4-(4-(tert-butyl)piperazin-1-yl)cyclohexyl)-2-(3,4-dimethoxyphenyl)-3-isopropyl-1H-indol-5-amine] | 6.29 | 6.27
18 | COc1ccc(-c2[nH]c3ccc(NC4CCC(N5CCN(C(C)(C)C)CC5)CC4)cc3c2C(C)C)cc1OC (stereo not drawn) [Example 50, N-(4-(4-(tert-butyl)piperazin-1-yl)cyclohexyl)-2-(3,4-dimethoxyphenyl)-3-isopropyl-1H-indol-5-amine] | 6.25 | 6.37
